Source: patent US8017649B2, “Flavonoid compounds and uses thereof” (Howard Florey Institute of Experimental Physiology and …, priority 2005, dated 2011)
“Also recorded” adds a separate entry of the source.

Experiments:
[1] = test system: endothelium intact aortic rings; experiment: Ca2+-induced contraction of rat aortic rings in Ca2+-free high-K+ solution; format: cell-based
Experimental: To determine the effect of flavonoids on responses to the influx of extracellular Ca^2+, contractile responses to exogenous application of Ca^2+ were examined in the presence of flavonoids in Ca^2+-free high-K^+ solution (60 mM, KPSS). Aortic rings were initially equilibrated at a resting tension of 1 g in normal Ca^2+-free PSS for 45 minutes. The bath medium was then replaced with Ca^2+-free KPSS for 45 minutes to determine a reference contraction to Ca^2+ (3×10^−3 M). Following a 30 minute re-equilibration period with Ca^2+-free PSS, the cumulative contractile responses to Ca^2+ (10^−5−3×10^−3 M) were determined in KPSS in the presence of a range of concentrations (10^−8-10^−4 M) of vehicle, 3′,4′-dihydroxyflavonol, 3-hydroxyflavone-3-hemiadipate, 3′,4′-dihydroxy-3-hemiadipate, 3-hydroxyflavone-3-phosphate. A 20 minute incubation period was allowed for the flavonoids before examining the responses to Ca^2+.
To determine the effect of flavonoids on responses to the influx of extracellular Ca^2+, contractile responses to exogenous application of Ca^2+ were examined in the presence of flavonoids in Ca^2+-free high-K^+ solution (60 mM, K+-PSS). Aortic rings were initially equilibrated at a resting tension of 1 g in Ca^2+-free PSS for 45 minutes. The bath medium was then replaced with Ca^2+-free K+-PSS for 45 minutes to determine a reference contraction to added Ca^2+ (3 mM). Following a 30 minute re-equilibration period with Ca^2+-free PSS, the cumulative contractile responses to Ca^2+ (10^−5−3×10^−3 M) were determined in K^+ PSS in the presence of vehicle (0.1% DMSO), or a range of concentrations (10^−7-10^−4 M) of 3′-hydroxyflavonol, F3HA, DiOHF3HA or F3P. A 20 minute incubation period was allowed for the flavonoids before examining the responses to Ca^2+. Experiments were conducted in the presence and absence of BuCHE (1000 U/L) to cleave the adipate in F3HA and DiOHF3HA. In experiments using F3P, phosphatase (1000 U/L) was used in some experiments to cleave the phosphate.

[2] = test system: endothelium-intact (EI) aortic rings; experiment: PE-induced contraction of rat aortic rings; format: cell-based
Experimental: Rings were incubated for 20 minutes with DiOHF3HA at a range of concentrations (10^−7-10^−4 M) or vehicle (0.1% dimethyl sulphoxide, DMSO). A concentration response curve to PE (10^−9-10^−5 M) in endothelium-intact (EI) aortic rings was then performed. Experiments were conducted in the presence and absence of BuCHE (1000 U/L) to cleave the adipate in DiOHF3HA.

anaesthetised sheep = experiment: Myocardial ischaemia and reperfusion injury in anaesthetised sheep; format: in vivo; conditions: for effect on infarct size / cardioprotection: i.v. in aqueous solution after 30 min of ischaemia; for infarct size normalized to the area at risk (IS/AR): lower dose: DiOHF3HA 2.7 mg/kg, DiOHF 2 mg/kg i.v.
Experimental: The ability of the synthetic flavonol, 3′,4′ dihydroxy flavonol adipate (DiOHF3HA) to prevent myocardial ischaemia and reperfusion injury in anaesthetised Sheep was assessed.
Five groups of anaesthetised adult merino sheep (35-45 kg wethers) were examined:
Anaesthesia was induced by intravenous thiopentone sodium (15 mg/kg) and following tracheal intubation was maintained by isoflurane (1.5-2%). A catheter was inserted in the right facial artery for arterial blood sampling and monitoring arterial pressure. Intravenous infusions were made via a catheter inserted into the jugular vein. The heart was exposed through a left thoracotomy performed at the fourth intercostal space. A 4F catheter-tipped manometer was inserted through the left atrium into the left ventricle to measure left ventricular pressure (LVP). An additional silastic cannula was inserted into the left atrial appendage for the injection of lignocaine and for infusion of Evans Blue. The left anterior descending coronary artery (LAD) was dissected from the epicardium immediately distal to its second diagonal branch, and a transit-time 2 mm flow probe was placed around it to monitor the LAD blood flow. A silk suture was passed under the LAD proximal to the probe and both ends of the silk were threaded through a plastic tube to form a vascular snare.
The animals were allowed to stabilise for 10-15 minutes after the completion of the surgical procedure. Sheep were then randomly divided into different treatment groups. All sheep had 30 minute baseline recording followed by 1 hour ischaemia and 3 hours reperfusion.
During the course of the experiment, haemodynamic measurements were recorded at 5 minute intervals and blood samples were taken at designated time-points. After 30 minutes of ischaemia, flavonol treatment was administered. DiOHF was dissolved in 2 ml DMSO plus 14 ml polyethylene glycol:water (1:1). DiOHF3HA was dissolved in 20 ml 0.1M Na2CO3. The drugs were given at 1 ml/min i.v. The two doses of DiOHF3HA (2.7 mg/kg and 6.6 mg/kg) were chosen to achieve equivalent molar doses to the parent DiOHF compound (at 2 mg/kg and 5 mg/kg, respectively). […] Lignocaine was used, as required, to ameliorate arrhythmias.
The area of myocardium at risk and infarct size were delineated by Evan's blue and triphenyltetrazolium chloride (TTC) staining. After 3 hours of reperfusion, the LAD was re-occluded at the original occlusion site. Immediately after intravenous injection of pentobarbitone (100 mg kg^−1) to arrest the heart, Evan's blue dye (1.5%, 40 ml) was injected into the left atrium to define the myocardium at risk. The heart was rapidly removed and the left ventricle was sliced into transverse sections about 1 cm thick. The unstained risk area was traced onto the same transparencies. The sections were then incubated in 0.1 M sodium phosphate buffer containing 1% TTC for 20 min (37° C., pH 7.4). The infarcted area was traced onto transparencies. The area of myocardium at risk, and infarct size, were measured by computerised planimetry. The former was expressed as a percentage of total left ventricular volume (AR/LV %) and infarct size was expressed as a percentage of the area of myocardium at risk (IS/AR %).
Arterial blood samples (5 ml) were collected into chilled heparinised tubes at baseline, during ischaemia and at three time points during the reperfusion period (1 hour, 2 hour and 3 hour). Following centrifugation at 4° C., plasma samples were stored at −20° C. until measurement to determine levels of lactate dehydrogenase and creatinine kinase.

SMILES | Maximum Contraction (percent 3 mM Ca^2+) ([1]; 10^−4 M + BuCHE) | Maximum Contraction (percent 3 mM Ca^2+) ([1]; 10^−4 M, without BuCHE) | effect on Ca^2+-induced contraction ([1]; alone, highest concentration 10^−4 M) | effect on Ca^2+-induced contraction ([1]; alone, over the concentration range tested) | effect on Ca^2+-induced contraction ([1]; in the presence of BuCHE or phosphatase (1000 U/L)) | effect on PE-induced contraction ([2]; alone, 0.1 mM) | effect on PE-induced contraction ([2]; in the presence of esterase (BuCHE)) | regression of LAD flow after reperfusion hyperperfusion (anaesthetised sheep; 6.6 mg/kg vs control) | haemodynamic indices (arterial pressure, HR, LV-EDP, dP/dtmax) during infusion (anaesthetised sheep; 20-min i.v. infusion, 6.6 mg/kg) | increase in plasma creatine kinase (anaesthetised sheep; after 1 hour ischaemia and 3 hours reperfusion) [U/L] | increase in plasma lactate dehydrogenase (anaesthetised sheep; after 1 hour ischaemia and 3 hours reperfusion, n=4) [U/L] | effect on infarct size / cardioprotection (anaesthetised sheep) | effect on infarct size / cardioprotection (anaesthetised sheep; listed as Adipate) | infarct size normalized to the area at risk (IS/AR) (anaesthetised sheep) [%]
O=C(O)CCCCC(=O)Oc1c(-c2ccc(O)c(O)c2)oc2ccccc2c1=O [DiOHF3HA, 3′,4′-dihydroxyflavone-3-hemiadipate] | 35 ± 6 | 101 ± 1 | slight Ca2+ inhibitory action | little effect on calcium-induced contraction | markedly enhanced the inhibitory effect; also recorded: equivalent inhibitory effect to DiOHF; also recorded: inhibit calcium-induced contraction | no effect on PE-induced contraction | inhibit the response to PE in a concentration dependent manner; also recorded: marked inhibition | more rapid | did not alter haemodynamic indices; also recorded: unchanged | 1579±936 | 67±32 | dose-related reduction in infarct size; also recorded: equivalent degree of cardioprotection to the parent compound | significant difference in infarct size | 64
O=c1c(O)c(-c2ccc(O)c(O)c2)oc2ccccc12 [DiOHF, 3′,4′-Dihydroxyflavonol, reference compound] | – | 18 ± 2 | – | – | – | inhibit the response to PE in a concentration dependent manner | – | – | – | – | – | – | – | 73
